The target in one assay is T1, EGFR (L858R T790M C797S) (Homo sapiens, UniProt P00533, C797S/L858R/T790M).
T1 construct: purchased SignalChem E10-122VG
Nature of the assay: Biochemical EGFR inhibition assay (Caliper mobility shift), EGFR LRTMCS mutant. How it is done: Reactions proceeded until between 10% to 20% total peptides were phosphorylated at room temperature (25° C.) and were terminated with 35 mM 2,2′,2″,2′″-(ethane-1,2-diyldinitrilo)tetraacetic acid (EDTA). Product was detected using the Caliper mobility shift detection method where the phosphorylated peptide (product) and substrate were electrophoretically separated and measured. Percent activity was plotted against log concentration of compound and points to generate an apparent IC50.

The target of assay [1] is T2, EGFR L858R T790M in NCI-H1975 cell line (Homo sapiens, UniProt P00533, L858R/T790M).
T2 construct: host or cells: NCI-H1975
T2 sequence (P00533 25-1210 T790M/L858R): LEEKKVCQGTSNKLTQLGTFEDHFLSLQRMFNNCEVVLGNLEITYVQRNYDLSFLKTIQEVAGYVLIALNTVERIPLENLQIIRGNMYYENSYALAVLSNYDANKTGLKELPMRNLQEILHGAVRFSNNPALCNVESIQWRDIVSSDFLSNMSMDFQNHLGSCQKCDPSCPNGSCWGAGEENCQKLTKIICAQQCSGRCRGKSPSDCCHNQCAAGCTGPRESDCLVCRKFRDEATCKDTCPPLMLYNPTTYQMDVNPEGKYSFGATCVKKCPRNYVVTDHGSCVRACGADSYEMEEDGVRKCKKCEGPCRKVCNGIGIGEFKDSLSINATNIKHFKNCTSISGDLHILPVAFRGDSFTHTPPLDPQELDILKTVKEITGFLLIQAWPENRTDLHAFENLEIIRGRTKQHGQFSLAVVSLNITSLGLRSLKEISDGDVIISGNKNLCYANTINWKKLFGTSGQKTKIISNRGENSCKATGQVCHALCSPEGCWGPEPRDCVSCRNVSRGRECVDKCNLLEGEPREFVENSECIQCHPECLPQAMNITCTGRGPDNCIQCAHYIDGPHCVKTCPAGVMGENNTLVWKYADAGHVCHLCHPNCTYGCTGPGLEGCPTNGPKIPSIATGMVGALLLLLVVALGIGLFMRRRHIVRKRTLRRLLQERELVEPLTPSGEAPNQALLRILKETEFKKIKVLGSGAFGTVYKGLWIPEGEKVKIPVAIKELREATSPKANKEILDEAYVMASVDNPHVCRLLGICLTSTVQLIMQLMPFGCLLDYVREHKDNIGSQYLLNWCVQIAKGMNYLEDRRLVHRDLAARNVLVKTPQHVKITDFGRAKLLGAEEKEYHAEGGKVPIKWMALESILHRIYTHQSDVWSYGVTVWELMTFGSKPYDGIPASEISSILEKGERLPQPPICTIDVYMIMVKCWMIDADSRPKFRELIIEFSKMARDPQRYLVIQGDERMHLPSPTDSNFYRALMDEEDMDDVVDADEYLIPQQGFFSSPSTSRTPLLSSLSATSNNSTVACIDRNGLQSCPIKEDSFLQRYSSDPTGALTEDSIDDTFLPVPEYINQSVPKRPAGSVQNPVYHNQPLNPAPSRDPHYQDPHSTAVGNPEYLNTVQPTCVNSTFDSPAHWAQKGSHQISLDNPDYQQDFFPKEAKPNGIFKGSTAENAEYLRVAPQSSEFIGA
The assay is described as follows: NCI-H1975 pEGFR AlphaLISA assay. In kind it is cell-based. The conditions noted are these: NCI-H1975 cells (EGFR L858R T790M), p-EGFR (Tyr1068), 4-5 hours incubation; read-out: Ext pEGFR H1975 GMean IC50 (nM) Protocol: @Pharmaron AlphaLISA (Num). How it is done: The NCI-H1975 cells were seeded at 12.5K/well in 22 μL into 384 well opti plate (PerkinElmer, 6007299) and adhering overnight at 37C/5% CO2. On the next day, the test compounds and DMSO control were added into H1975 cell plate followed by incubation at 37C/5% CO2 for 4-5 hours. […] Then 5 μL of a donor bead mix was added to each well followed by overnight incubation at room temperature in dark. On the next day, the plate was read at a compatible plate reader to obtain pEGFR signal. Percent of pEGFR inhibition was plotted against log concentration of compounds to generate IC50 values.

[2] abbreviates: LRTMCS (PH) IC50 (nM) @ 1 mM ATP (Num).
Setting [3] is: read-out: LRTMCS (PH) IC50 (nM) @ 1 mM ATP (Num).

Structures can show the parent of a compound that is named as a salt. Where two headings read alike, the source gives them in different places.

T1 sequence (P00533 25-1210 T790M/C797S/L858R): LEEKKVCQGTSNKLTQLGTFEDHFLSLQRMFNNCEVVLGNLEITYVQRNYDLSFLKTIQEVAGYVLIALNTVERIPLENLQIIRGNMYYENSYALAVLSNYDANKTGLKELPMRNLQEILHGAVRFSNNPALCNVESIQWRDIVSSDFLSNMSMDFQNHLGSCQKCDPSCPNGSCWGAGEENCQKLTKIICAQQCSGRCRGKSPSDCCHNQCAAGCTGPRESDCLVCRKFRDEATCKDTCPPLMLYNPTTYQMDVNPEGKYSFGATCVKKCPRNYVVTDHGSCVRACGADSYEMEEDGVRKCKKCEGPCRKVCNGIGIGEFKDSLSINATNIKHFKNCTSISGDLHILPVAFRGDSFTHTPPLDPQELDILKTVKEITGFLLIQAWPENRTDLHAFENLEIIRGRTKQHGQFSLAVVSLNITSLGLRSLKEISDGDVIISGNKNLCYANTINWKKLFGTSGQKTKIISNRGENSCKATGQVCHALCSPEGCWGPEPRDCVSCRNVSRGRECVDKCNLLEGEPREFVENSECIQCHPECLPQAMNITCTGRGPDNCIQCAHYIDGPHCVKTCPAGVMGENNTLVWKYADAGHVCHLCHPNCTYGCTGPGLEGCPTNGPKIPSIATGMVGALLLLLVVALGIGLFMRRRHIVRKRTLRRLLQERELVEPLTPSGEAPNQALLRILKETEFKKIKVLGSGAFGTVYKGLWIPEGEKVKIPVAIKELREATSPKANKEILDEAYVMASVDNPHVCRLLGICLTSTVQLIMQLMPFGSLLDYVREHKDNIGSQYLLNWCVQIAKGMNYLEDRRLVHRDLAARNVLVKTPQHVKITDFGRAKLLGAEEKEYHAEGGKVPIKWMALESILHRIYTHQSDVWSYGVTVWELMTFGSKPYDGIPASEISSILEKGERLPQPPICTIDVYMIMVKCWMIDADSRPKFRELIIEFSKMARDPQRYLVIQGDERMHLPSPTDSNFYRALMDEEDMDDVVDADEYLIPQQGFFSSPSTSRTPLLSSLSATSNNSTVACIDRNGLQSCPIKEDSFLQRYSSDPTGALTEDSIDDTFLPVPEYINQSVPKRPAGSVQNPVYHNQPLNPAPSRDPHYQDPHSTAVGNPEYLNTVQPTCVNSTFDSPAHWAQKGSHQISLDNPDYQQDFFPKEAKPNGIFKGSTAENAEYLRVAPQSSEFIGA

As to `CC(C)c1cnc(C(=O)N[C@H]2CNC[C@H]2F)c2cnc(Nc3ccnc(N4CC[C@@H](O)[C@@](C)(F)C4)n3)cc12` (racemic) [Example 85, 6-((2-((3S,4R)-3-fluoro-4-hydroxy-3-methylpiperidin-1-yl)pyrimidin-4-yl)amino)-N-((3S,4R)-4-fluoropyrrolidin-3-yl)-4-isopropyl-2,7-naphthyridine-1-carboxamide trifluoroacetate and 6-((2-((3S,4R)-3-fluoro-4-hydroxy-3-methylpiperidin-1-yl)pyrimidin-4-yl)amino)-N-((3R,4S)-4-fluoropyrrolidin-3-yl)-4-isopropyl-2,7-naphthyridine-1-carboxamide trifluoroacetate], the results for the IC50 (on EGFR (L858R T790M C797S) (setting [2]); in assay [1]) were below 15 nM and 10 to 20 nM, respectively.
`CC(C)c1cnc(C(=O)N[C@@H]2CNC[C@H]2F)c2cnc(Nc3ccnc(N4CC[C@@H](O)[C@@](C)(F)C4)n3)cc12` (racemic) [Example 86, 6-((2-((3S,4R)-3-fluoro-4-hydroxy-3-methylpiperidin-1-yl)pyrimidin-4-yl)amino)-N-((3R,4R)-4-fluoropyrrolidin-3-yl)-4-isopropyl-2,7-naphthyridine-1-carboxamide trifluoroacetate and 6-((2-((3S,4R)-3-fluoro-4-hydroxy-3-methylpiperidin-1-yl)pyrimidin-4-yl)amino)-N-((3S,4S)-4-fluoropyrrolidin-3-yl)-4-isopropyl-2,7-naphthyridine-1-carboxamide trifluoroacetate]: the results for the 50% inhibitory concentration (IC50) (at EGFR (L858R T790M C797S) (setting [2]); in assay [1]) were 20 to 30 nM and above 50 nM, respectively.
`CO[C@@H]1CCN(c2nccc(Nc3cc4c(C(C)C)ccc(NCC5CNC[C@@H]5S(C)(=O)=O)c4cn3)n2)C[C@@H]1F` (single isomer, unassigned) [Example 1, N3-(2-((3S,4R)-3-fluoro-4-methoxypiperidin-1-yl)pyrimidin-4-yl)-5-isopropyl-N8-(((4R)-4-(methylsulfonyl)pyrrolidin-3-yl)methyl)isoquinoline-3,8-diamine or N3-(2-((3S,4R)-3-fluoro-4-methoxypiperidin-1-yl)pyrimidin-4-yl)-5-isopropyl-N8-(((4S)-4-(methylsulfonyl)pyrrolidin-3-yl)methyl)isoquinoline-3,8-diamine]: the IC50 is below 15 nM on EGFR (L858R T790M C797S) (setting [2]) and 30 to 50 nM in assay [1].
Turning to `CC(C)c1cnc(NC[C@H](C)N(C)C)c2cnc(Nc3ccnc(N4CC[C@@H](O)[C@@](C)(F)C4)n3)cc12` (single isomer, unassigned) [Example 4, (3S,4R)-1-(4-((8-(((S)-2-(dimethylamino)propyl)amino)-5-isopropyl-2,7-naphthyridin-3-yl)amino)pyrimidin-2-yl)-3-fluoro-3-methylpiperidin-4-ol or (3S,4R)-1-(4-((8-(((R)-2-(dimethylamino)propyl)amino)-5-isopropyl-2,7-naphthyridin-3-yl)amino)pyrimidin-2-yl)-3-fluoro-3-methylpiperidin-4-ol], the results for the IC50 (at EGFR (L858R T790M C797S) (setting [2]); in assay [1]) were 30 to 100 nM and above 50 nM, respectively.
With `CC(C)c1ccc(OC[C@H]2CCC(=O)N2C)c2cnc(Nc3ccnc(N4CCC(C)(O)CC4)n3)cc12` (single isomer, unassigned) [Example 19, (R)-5-(((3-((2-(4-hydroxy-4-methylpiperidin-1-yl)pyrimidin-4-yl)amino)-5-isopropylisoquinolin-8-yl)oxy)methyl)-1-methylpyrrolidin-2-one or (S)-5-(((3-((2-(4-hydroxy-4-methylpiperidin-1-yl)pyrimidin-4-yl)amino)-5-isopropylisoquinolin-8-yl)oxy)methyl)-1-methylpyrrolidin-2-one], the results for the IC50 (on EGFR (L858R T790M C797S) (setting [2]); in assay [1]) were below 15 nM and 10 to 20 nM, respectively.
For `CC(C)c1ccc(OC[C@@H]2CC(=O)N(C)C2)c2cnc(Nc3ccnc(N4CC[C@@H](O)[C@@](C)(F)C4)n3)cc12` (single isomer, unassigned) [Example 20] the same measures were below 15 nM and 10 to 20 nM.
Regarding `CC(C)c1ccc(OC[C@@H]2CC(=O)N(C)C2)c2cnc(Nc3ccnc(N4CC[C@@H](O)[C@@](C)(F)C4)n3)cc12` (single isomer, unassigned) [Example 21], the figures for the IC50 (on EGFR (L858R T790M C797S) (setting [3]); in assay [1]) were below 15 nM and below 10 nM, respectively.
For `CC(C)c1ccc(OC[C@H]2COC(=O)N2C)c2cnc(Nc3ccnc(N4CC[C@@](C)(O)[C@@H](F)C4)n3)cc12` (single isomer, unassigned) [Example 22], the figures for the IC50 (at EGFR (L858R T790M C797S) (setting [2]); in assay [1]) were 15 to 20 nM and above 50 nM, respectively.
Turning to `CC(C)c1ccc(OC[C@H]2COC(=O)N2C)c2cnc(Nc3ccnc(N4CC[C@@](C)(O)[C@@H](F)C4)n3)cc12` (single isomer, unassigned) [Example 23], the IC50 on EGFR (L858R T790M C797S) (setting [3]) was 15 to 20 nM; in assay [1] it was 30 to 50 nM.
With `CC(=O)N1CC([C@@H](C)Oc2ccc(C(C)C)c3cc(Nc4ccnc(N5CC[C@@H](O)[C@@](C)(F)C5)n4)ncc23)C1` (single isomer, unassigned) [Example 24, 1-(3-((R)-1-((3-((2-((3S,4R)-3-fluoro-4-hydroxy-3-methylpiperidin-1-yl)pyrimidin-4-yl)amino)-5-isopropylisoquinolin-8-yl)oxy)ethyl)azetidin-1-yl)ethan-1-one or 1-(3-((S)-1-((3-((2-((3S,4R)-3-fluoro-4-hydroxy-3-methylpiperidin-1-yl)pyrimidin-4-yl)amino)-5-isopropylisoquinolin-8-yl)oxy)ethyl)azetidin-1-yl)ethan-1-one], the IC50 at EGFR (L858R T790M C797S) (setting [2]) is below 15 nM; in assay [1], below 10 nM.
Take `CC(=O)N1CC(COc2cccc3cc(Nc4ccnc(N5C[C@@H](F)[C@@H](O)C(C)(C)C5)n4)ncc23)C1` (single isomer, unassigned) [Example 42, 1-(3-(((3-((2-((4S,5R)-5-fluoro-4-hydroxy-3,3-dimethylpiperidin-1-yl)pyrimidin-4-yl)amino)isoquinolin-8-yl)oxy)methyl)azetidin-1-yl)ethenone or 1-(3-(((3-((2-((4R,5S)-5-fluoro-4-hydroxy-3,3-dimethylpiperidin-1-yl)pyrimidin-4-yl)amino)isoquinolin-8-yl)oxy)methyl)azetidin-1-yl)ethenone]: the IC50 was 20 to 30 nM at EGFR (L858R T790M C797S) (setting [2]) and above 50 nM in assay [1].
Consider `CC(C)c1ccc(OCCn2cnnc2)c2cnc(Nc3ccnc(N4CC[C@H]5COC[C@H]54)n3)cc12` (single isomer, unassigned) [Example 50], for which the concentration for half-maximal inhibition (IC50) was 20 to 30 nM at EGFR (L858R T790M C797S) (setting [2]) and above 50 nM in assay [1].
For the molecule `CC(C)c1ccc(OCCn2cnnc2)c2cnc(Nc3ccnc(N4CC[C@H]5COC[C@H]54)n3)cc12` (single isomer, unassigned) [Example 51], the figures for the IC50 (at EGFR (L858R T790M C797S) (setting [3]); in assay [1]) were 20 to 30 nM and above 50 nM, respectively.
As to `CO[C@@H]1CCN(c2nccc(Nc3cc4c(C(C)C)ccc(OCC5CN(C(C)=O)C5)c4cn3)n2)C[C@@H]1O` (single isomer, unassigned) [Example 56, 1-(3-(((3-((2-((3S,4R)-3-hydroxy-4-methoxypiperidin-1-yl)pyrimidin-4-yl)amino)-5-isopropylisoquinolin-8-yl)oxy)methyl)azetidin-1-yl)ethan-1-one or 1-(3-(((3-((2-((3R,4S)-3-hydroxy-4-methoxypiperidin-1-yl)pyrimidin-4-yl)amino)-5-isopropylisoquinolin-8-yl)oxy)methyl)azetidin-1-yl)ethan-1-one], the IC50 at EGFR (L858R T790M C797S) (setting [2]) is below 15 nM; in assay [1], 30 to 50 nM.
As to `CO[C@H]1CCN(c2nccc(Nc3cc4c(C(C)C)ccc(OCC5CN(C(C)=O)C5)c4cn3)n2)C[C@@H]1O` (single isomer, unassigned) [Example 57, 1-(3-(((3-((2-((3S,4S)-3-hydroxy-4-methoxypiperidin-1-yl)pyrimidin-4-yl)amino)-5-isopropylisoquinolin-8-yl)oxy)methyl)azetidin-1-yl)ethan-1-one or 1-(3-(((3-((2-((3R,4R)-3-hydroxy-4-methoxypiperidin-1-yl)pyrimidin-4-yl)amino)-5-isopropylisoquinolin-8-yl)oxy)methyl)azetidin-1-yl)ethan-1-one], the figures for the IC50 (at EGFR (L858R T790M C797S) (setting [2]); in assay [1]) were 15 to 20 nM and above 50 nM, respectively.
With `CO[C@H]1CCN(c2nccc(Nc3cc4c(C(C)C)ccc(OCCCNC(C)=O)c4cn3)n2)C[C@@H]1O` (single isomer, unassigned) [Example 58, N-(3-((3-((2-((3S,4S)-3-hydroxy-4-methoxypiperidin-1-yl)pyrimidin-4-yl)amino)-5-isopropylisoquinolin-8-yl)oxy)propyl)acetamide or N-(3-((3-((2-((3R,4R)-3-hydroxy-4-methoxypiperidin-1-yl)pyrimidin-4-yl)amino)-5-isopropylisoquinolin-8-yl)oxy)propyl)acetamide], the figures for the IC50 (on EGFR (L858R T790M C797S) (setting [2]); in assay [1]) were below 15 nM and 20 to 30 nM, respectively.

For the origin of these results see patent US20240299387A1, “HETEROCYCLIC EGFR INHIBITORS FOR USE IN THE TREATMENT OF CANCER” (Blueprint Medicines Corporation, priority 2021, published 2024).
